# Tested on: BMAL1 gene
# Assay: Evaluation of the BMAL1 gene-expression-promotion activity (BMAL1 mRNA amount via reverse-transcribed cDNA)
# Assay type: cell-based
# Settings: rat-muscle myoblasts C2Cl2, differentiation-induction, cultivated one week; 3 μg/mL; Dunnett, ** p<0.01
# Method: Differentiation-induction was done to the rat-muscle myoblasts C2Cl2. At the same time, the purple-tea extract of 0.1, 1.0, 3.0 and 10 μg/mL, and the GHG of 0.1, 1.0 and 3 μg/mL, was respectively added to such myoblasts and cultivated for one week. After that, an RNA extraction was done to determine, by using a reverse-transcribed cDNA, the amount of mRNA and of the BMAL1 gene.
# A significance-test was done by the Dunnett Method, and the double asterisk ** means p<0.01. Also, no active components were added to the “control,” but the purple-tea extract (GHG-content extract) was added to the “PTE.”
smiles,measurement,value
"O=C(OC1OC2COC(=O)c3cc(O)c(O)c(O)c3-c3c(cc(O)c(O)c3O)C(=O)OC2C(O)C1OC(=O)c1cc(O)c(O)c(O)c1)c1cc(O)c(O)c(O)c1 [GHG, 1,2-di-O-galloyl-4,6-O—(S)-hexahydroxydiphenoyl-ß-D-glucose]",expression-level of the BMAL1 gene against the Control,significantly was seen to have increased
